Test results taken from patent US20240139211A1, “METHODS AND COMPOSITIONS FOR TREATING AMYOTROPHIC LATERAL SCLEROSIS” (Amylyx Pharmaceuticals, Inc., priority 2022, published 2024).
pEC50: −log10 of the molar value. Like-named read-outs stand apart in the source and are kept apart here.

What was measured:
OATP1B1 = OATP1B1 (Homo sapiens, UniProt Q9Y6L6); experiment: Substrate of OATP1B1, uptake in HEK293 cells
From the text: (§1) Vector-transfected HEK cells were used as a control.

in vitro = settings: human, Caco-2
BSEP = BSEP (Homo sapiens, UniProt O95342); experiment: Inhibitor of BSEP; settings: for Inhibition of BSEP / Inhibitor of BSEP: two concentrations per test article
Chain of BSEP (O95342 whole entry): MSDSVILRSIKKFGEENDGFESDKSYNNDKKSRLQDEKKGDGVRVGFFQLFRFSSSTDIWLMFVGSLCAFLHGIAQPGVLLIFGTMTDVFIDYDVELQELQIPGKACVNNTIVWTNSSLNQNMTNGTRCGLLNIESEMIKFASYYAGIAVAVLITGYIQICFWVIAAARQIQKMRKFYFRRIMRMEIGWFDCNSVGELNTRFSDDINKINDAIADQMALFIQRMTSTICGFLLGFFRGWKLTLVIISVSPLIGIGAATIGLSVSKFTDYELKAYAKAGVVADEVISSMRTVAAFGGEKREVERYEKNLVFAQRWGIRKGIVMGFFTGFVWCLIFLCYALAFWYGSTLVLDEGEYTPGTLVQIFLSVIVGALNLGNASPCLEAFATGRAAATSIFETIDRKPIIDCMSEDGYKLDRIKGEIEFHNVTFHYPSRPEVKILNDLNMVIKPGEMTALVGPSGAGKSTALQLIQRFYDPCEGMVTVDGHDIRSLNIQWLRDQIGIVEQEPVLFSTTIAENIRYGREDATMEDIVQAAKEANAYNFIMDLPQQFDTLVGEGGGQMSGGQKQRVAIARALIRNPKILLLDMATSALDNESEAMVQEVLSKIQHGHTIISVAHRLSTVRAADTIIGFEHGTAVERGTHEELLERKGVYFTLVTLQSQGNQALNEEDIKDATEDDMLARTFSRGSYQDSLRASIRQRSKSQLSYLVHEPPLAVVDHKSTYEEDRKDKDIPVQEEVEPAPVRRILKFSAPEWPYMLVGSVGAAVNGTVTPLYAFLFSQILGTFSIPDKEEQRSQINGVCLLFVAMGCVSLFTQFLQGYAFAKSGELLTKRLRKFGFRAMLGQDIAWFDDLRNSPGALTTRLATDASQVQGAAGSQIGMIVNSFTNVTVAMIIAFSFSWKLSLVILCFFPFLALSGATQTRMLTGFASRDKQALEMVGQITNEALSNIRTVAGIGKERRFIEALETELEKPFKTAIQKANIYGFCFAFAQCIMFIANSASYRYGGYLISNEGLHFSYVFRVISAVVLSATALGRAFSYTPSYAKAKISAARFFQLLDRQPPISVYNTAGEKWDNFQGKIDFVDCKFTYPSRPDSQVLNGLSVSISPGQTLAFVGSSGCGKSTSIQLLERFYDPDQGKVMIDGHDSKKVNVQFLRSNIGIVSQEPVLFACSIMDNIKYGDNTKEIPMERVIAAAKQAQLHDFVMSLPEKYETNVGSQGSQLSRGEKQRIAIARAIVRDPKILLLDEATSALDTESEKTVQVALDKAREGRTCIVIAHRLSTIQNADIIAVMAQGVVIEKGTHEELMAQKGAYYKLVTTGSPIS

OAT1 [1] = molecular target: T1, OAT1 (Homo sapiens, UniProt Q4U2R8); experiment: Inhibitor of OAT1, probe substrate uptake; settings: for Inhibition of OAT1 / Inhibitor of OAT1: two concentrations per test article; for potency estimated from few doses: read-out: Estimated IC50, OAT1
T1 sequence (Q4U2R8 1-563): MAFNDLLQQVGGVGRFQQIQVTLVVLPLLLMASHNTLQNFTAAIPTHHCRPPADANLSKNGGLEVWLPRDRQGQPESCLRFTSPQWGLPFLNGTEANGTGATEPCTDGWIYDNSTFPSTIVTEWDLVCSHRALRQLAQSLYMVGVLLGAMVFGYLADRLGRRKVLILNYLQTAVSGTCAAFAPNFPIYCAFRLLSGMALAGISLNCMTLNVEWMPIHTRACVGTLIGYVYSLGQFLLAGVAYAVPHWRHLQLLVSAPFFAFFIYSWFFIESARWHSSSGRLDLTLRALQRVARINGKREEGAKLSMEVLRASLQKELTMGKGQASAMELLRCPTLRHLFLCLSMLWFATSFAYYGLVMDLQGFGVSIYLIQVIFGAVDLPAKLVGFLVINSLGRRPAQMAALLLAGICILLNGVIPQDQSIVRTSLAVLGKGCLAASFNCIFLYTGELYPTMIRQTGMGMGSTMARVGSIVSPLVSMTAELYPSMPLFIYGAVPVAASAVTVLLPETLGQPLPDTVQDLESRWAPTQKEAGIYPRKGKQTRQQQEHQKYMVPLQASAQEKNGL

OAT3 = molecular target: T2, OAT3 (Homo sapiens, UniProt Q8TCC7); experiment: Inhibitor of OAT3, probe substrate uptake; settings: for potency estimated from few doses: read-out: Estimated IC50, OAT3; for Inhibition of OAT3 / Inhibitor of OAT3: two concentrations per test article
T2 sequence (Q8TCC7 1-542): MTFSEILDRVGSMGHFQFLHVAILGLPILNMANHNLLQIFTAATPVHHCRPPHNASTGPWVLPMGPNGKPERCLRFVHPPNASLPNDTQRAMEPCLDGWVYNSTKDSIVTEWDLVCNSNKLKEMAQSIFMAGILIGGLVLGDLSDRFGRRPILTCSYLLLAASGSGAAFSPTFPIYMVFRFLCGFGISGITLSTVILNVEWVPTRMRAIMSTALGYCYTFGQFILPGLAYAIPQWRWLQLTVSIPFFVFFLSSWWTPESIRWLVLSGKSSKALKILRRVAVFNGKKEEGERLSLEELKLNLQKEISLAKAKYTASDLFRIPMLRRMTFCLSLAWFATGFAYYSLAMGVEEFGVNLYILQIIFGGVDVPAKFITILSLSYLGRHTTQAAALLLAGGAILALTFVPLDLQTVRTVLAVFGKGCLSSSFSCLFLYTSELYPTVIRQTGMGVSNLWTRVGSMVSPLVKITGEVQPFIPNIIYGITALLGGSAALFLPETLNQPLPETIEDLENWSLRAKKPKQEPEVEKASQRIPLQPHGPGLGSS

OCT1 [2] = molecular target: T3, OCT1 (Homo sapiens, UniProt O15245); experiment: Inhibitor of OCT1, probe substrate uptake; settings: for Inhibition of OCT1 / Inhibitor of OCT1: two concentrations per test article; for potency estimated from few doses: read-out: Estimated IC50, OCT1
T3 sequence (O15245 1-554): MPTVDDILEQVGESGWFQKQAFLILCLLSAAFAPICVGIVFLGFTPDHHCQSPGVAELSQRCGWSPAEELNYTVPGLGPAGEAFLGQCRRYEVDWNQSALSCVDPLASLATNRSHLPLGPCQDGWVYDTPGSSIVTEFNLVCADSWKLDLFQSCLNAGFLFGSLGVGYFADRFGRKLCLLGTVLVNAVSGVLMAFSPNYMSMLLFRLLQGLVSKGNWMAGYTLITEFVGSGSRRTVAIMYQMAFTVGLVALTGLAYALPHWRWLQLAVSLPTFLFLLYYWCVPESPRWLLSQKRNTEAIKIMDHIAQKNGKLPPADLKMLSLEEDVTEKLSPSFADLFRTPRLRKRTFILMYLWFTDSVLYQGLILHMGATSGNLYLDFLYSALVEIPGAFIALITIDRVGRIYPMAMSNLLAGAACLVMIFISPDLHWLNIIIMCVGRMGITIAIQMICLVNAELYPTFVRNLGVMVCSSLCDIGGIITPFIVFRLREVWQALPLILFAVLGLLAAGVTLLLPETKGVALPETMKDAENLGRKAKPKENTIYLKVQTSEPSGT

MATE2K = MATE2K (Homo sapiens, UniProt Q86VL8); experiment: Inhibitor of MATE2-K, probe substrate uptake; settings: for Inhibition of MATE2-K / Inhibitor of MATE2-K: two concentrations per test article; for potency estimated from few doses: read-out: Estimated IC50, MATE2-K
Chain of MATE2K (Q86VL8 1-566 isoform Q86VL8-3): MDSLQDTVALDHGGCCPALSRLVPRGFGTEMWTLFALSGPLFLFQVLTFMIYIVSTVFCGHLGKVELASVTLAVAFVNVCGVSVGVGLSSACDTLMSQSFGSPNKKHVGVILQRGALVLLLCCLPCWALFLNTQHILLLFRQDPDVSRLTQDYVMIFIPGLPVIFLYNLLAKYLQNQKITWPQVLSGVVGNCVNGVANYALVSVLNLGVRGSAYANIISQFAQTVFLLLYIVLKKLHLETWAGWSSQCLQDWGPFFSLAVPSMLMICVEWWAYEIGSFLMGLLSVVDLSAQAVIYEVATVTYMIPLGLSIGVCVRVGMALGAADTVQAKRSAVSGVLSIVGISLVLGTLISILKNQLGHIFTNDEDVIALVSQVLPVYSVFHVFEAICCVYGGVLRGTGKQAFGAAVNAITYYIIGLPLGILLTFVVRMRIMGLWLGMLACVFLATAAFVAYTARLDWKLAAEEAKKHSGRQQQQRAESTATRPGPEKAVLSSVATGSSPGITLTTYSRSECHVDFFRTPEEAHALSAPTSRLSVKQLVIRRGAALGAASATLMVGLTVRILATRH

P-gp = P-gp (Homo sapiens, UniProt P08183); experiment: Substrate of P-gp (Caco-2 cells, selective inhibitors)
Chain of P-gp (P08183 whole entry): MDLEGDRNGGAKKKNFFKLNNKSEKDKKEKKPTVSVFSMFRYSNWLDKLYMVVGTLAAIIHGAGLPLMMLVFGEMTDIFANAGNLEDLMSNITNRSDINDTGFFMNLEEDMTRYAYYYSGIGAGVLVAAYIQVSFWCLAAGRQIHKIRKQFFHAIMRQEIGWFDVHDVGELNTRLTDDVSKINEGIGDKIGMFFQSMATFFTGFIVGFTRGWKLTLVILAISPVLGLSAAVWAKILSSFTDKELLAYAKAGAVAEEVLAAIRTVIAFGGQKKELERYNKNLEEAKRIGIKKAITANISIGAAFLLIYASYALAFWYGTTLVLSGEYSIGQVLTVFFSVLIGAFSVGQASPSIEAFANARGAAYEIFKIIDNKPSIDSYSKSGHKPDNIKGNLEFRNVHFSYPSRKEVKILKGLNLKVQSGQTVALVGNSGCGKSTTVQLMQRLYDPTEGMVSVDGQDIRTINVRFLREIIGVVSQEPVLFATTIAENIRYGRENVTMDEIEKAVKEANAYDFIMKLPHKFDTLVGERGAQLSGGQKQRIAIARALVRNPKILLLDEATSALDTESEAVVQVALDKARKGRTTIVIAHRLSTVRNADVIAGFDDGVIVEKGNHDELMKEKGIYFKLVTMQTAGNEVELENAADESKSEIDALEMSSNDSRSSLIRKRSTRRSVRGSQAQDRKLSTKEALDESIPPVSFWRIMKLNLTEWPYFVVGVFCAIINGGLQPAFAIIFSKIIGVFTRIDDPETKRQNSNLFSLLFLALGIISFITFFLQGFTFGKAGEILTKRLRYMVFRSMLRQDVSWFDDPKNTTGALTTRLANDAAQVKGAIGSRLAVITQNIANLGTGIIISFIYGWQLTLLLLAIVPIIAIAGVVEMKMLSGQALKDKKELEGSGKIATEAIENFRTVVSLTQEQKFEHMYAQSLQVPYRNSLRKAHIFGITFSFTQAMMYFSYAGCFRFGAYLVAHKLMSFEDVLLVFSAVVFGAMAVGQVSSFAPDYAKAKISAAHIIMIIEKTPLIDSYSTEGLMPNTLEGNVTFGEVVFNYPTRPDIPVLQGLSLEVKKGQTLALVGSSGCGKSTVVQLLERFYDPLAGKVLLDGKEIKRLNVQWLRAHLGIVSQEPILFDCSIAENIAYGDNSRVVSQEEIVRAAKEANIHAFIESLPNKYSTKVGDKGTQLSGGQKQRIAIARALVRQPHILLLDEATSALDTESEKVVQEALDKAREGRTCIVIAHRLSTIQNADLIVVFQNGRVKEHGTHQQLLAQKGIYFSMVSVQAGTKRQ

CYP2B6 mRNA = experiment: CYP2B6 gene expression induction in hepatocyte cultures; settings: for pEC50: read-out: EC50, CYP2B6 gene expression
CYP3A4 mRNA = experiment: CYP3A4 gene expression induction in hepatocyte cultures; settings: for Inducer of CYP3A4 (conclusion): gene expression and enzyme activity, three donors
human hepatocytes = experiment: Cytotoxicity of six test articles in hepatocyte cultures (MTS); settings: for Concentrations at which not hepatotoxic: Donor 1, 72±2 hours
OAT1 [3] = molecular target: T1, OAT1; experiment: Substrate of OAT1, uptake in HEK293 cells
From the text: as §1

OCT1 [4] = molecular target: T3, OCT1; experiment: Substrate of OCT1, uptake in HEK293 cells
From the text: as §1

[5] = estimated from two concentrations
[6] = test article 1 and 10 μM, Caco-2 cells

Chain of OATP1B1 (Q9Y6L6 whole entry): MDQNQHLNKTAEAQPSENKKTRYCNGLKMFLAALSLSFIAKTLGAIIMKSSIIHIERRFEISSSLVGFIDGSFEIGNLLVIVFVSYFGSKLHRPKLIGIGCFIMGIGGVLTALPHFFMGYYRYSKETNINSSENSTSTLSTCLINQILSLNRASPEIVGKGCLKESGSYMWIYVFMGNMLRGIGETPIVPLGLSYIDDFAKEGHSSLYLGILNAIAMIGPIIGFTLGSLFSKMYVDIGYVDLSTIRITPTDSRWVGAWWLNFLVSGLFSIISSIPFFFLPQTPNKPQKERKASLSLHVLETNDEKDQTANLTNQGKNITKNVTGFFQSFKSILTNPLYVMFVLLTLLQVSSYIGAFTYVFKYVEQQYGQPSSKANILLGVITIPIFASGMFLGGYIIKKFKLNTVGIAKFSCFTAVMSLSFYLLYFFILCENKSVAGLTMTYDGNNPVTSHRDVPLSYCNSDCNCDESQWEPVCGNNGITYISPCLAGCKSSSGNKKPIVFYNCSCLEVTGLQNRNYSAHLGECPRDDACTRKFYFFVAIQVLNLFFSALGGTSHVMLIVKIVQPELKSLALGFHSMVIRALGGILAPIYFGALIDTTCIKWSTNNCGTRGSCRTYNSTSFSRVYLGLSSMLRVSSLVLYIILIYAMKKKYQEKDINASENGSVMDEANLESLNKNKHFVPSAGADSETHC

Compound	Papp A→B (in vitro) [×10⁻⁶ cm/s]	Papp B→A (in vitro) [×10⁻⁶ cm/s]	Inhibition of BSEP (BSEP)	Inhibitor of BSEP (BSEP)	Inhibition of OAT1 (OAT1 [1])	Inhibitor of OAT1 (OAT1 [1])	potency estimated from few doses (OAT3; [5]) [µM]	Inhibition of OAT3 (OAT3)	Inhibitor of OAT3 (OAT3)	Inhibition of OCT1 (OCT1 [2])	Inhibitor of OCT1 (OCT1 [2])	Inhibition of MATE2-K (MATE2K)	Inhibitor of MATE2-K (MATE2K)	Substrate of P-gp (P-gp; Caco-2, 1 and 10 μM)	Substrate of P-gp (P-gp; [6])	Emax, CYP2B6 gene expression (CYP2B6 mRNA; Donor 1) [fold]	Emax, CYP2B6 gene expression (CYP2B6 mRNA; Donor 2) [fold]	pEC50 (CYP2B6 mRNA; Donor 2)	Inducer of CYP3A4 (conclusion) (CYP3A4 mRNA)	Concentrations at which not hepatotoxic (human hepatocytes) [µM]	other results
C[C@H](CCC(=O)NCC(=O)O)[C@H]1CC[C@H]2[C@@H]3[C@@H](O)C[C@@H]4C[C@H](O)CC[C@]4(C)[C@H]3CC[C@]12C [Glycoursodeoxycholic acid, glycoursodeoxycholic acid]	≥ 2.4	≥ 6.84	inhibited	Yes	did not inhibit	No	< 100	inhibited	Yes	did not inhibit	No	did not inhibit	No	as a substrate	Yes	5.60	4.53	5.86	did not meet the classification requirements to be identified as an inducer of CYP3A4	≤ 100	Fold uptake by OATP1B1 over vector control (OATP1B1; human, 5 min, 10 μM): 7.56 fold; Fold uptake by OATP1B1 over vector control with known inhibitors (OATP1B1; human, 5 min, 10 μM): 1.80 fold; efflux ratio at 1 μM (in vitro): 1.86; efflux ratio at 10 μM (in vitro): 2.85; recovery (in vitro): ≥ 75%; potency estimated from few doses (BSEP; human): < 10 µM; Uptake activity remaining, OAT3 (OAT3; 100 μM): 24.5%; Efflux remaining with zosuquidar (P-gp; Caco-2): < 55.3%; Efflux remaining with verapamil (P-gp; Caco-2, at 10 μM): 74.7%; Maximum fold induction of CYP2B6 gene expression (CYP2B6 mRNA; Donor 2): 4.80 fold; Emax, CYP2B6 gene expression (CYP2B6 mRNA; Donor 3): 5.78 fold; Maximum fold induction of CYP2B6 gene expression (CYP2B6 mRNA; Donor 3): 5.68 fold; pEC50 (CYP2B6 mRNA; Donor 3): 5.83; Maximum fold induction of CYP3A4 gene expression (CYP3A4 mRNA; Donor 2): 3.40 fold; Maximum fold induction of CYP3A4 gene expression (CYP3A4 mRNA; Donor 3): 3.30 fold
O=C(O)CCCc1ccccc1 [PB, sodium phenylbutyrate]	≤ 28.9	254	did not inhibit	No	inhibited	Yes	< 25	inhibited	Yes	did not inhibit	No	did not inhibit	No	not a substrate	No	8.54	24.4	3.97	–	≤ 250	Uptake activity remaining, OAT1 (OAT1 [1]; 25 μM): 21.1%; potency estimated from few doses (OAT1 [1]; [5]): < 25 µM; Uptake activity remaining, OAT3 (OAT3; 25 μM): 44.3%; pEC50 (CYP2B6 mRNA; Donor 1): 4.72
tauroursodeoxycholic acid [TUDCA]	–	–	inhibited	Yes	did not inhibit	No	> 50	inhibited	Yes	did not inhibit	No	inhibited	Yes	as a substrate	Yes	–	–	–	did not meet the classification requirements to be identified as an inducer	550	Substrate of OAT1 (OAT1 [3]; 1 and 10 μM): not a substrate; Substrate of OAT1 (OAT1 [3]; test article 1 and 10 μM): No; Substrate of OCT1 (OCT1 [4]; 1 and 10 μM): not a substrate; Substrate of OCT1 (OCT1 [4]; test article 1 and 10 μM): No; Substrate of OATP1B1 (OATP1B1; 1 and 10 μM): not a substrate; Substrate of OATP1B1 (OATP1B1; test article 1 and 10 μM): No; potency estimated from few doses (BSEP; read-out: Estimated IC50, BSEP, estimated from two concentrations): < 5 µM; potency estimated from few doses (OAT3; estimated from two doses): > 50 µM; Uptake activity remaining, MATE2-K (MATE2K; concentration not stated (5 and 50 μM tested)): 44.3%; potency estimated from few doses (MATE2K; [5]): < 50 µM; potency estimated from few doses (MATE2K; estimated from two doses): < 50 µM; Inducer of CYP2B6 (conclusion) (CYP2B6 mRNA; gene expression and enzyme activity, three donors): did not meet the classification requirements to be identified as an inducer
ursodeoxycholic acid	–	–	–	–	inhibited	Yes	< 50	inhibited	Yes	inhibited	Yes	inhibited	Yes	not a substrate	No	–	–	–	–	≤ 250	Substrate of OAT1 (OAT1 [3]; 1 and 10 μM): not a substrate; Substrate of OAT1 (OAT1 [3]; test article 1 and 10 μM): No; Substrate of OCT1 (OCT1 [4]; 1 and 10 μM): not a substrate; Substrate of OCT1 (OCT1 [4]; test article 1 and 10 μM): No; Substrate of OATP1B1 (OATP1B1; 1 and 10 μM): not a substrate; Substrate of OATP1B1 (OATP1B1; test article 1 and 10 μM): No; potency estimated from few doses (OAT1 [1]; [5]): < 500 µM; potency estimated from few doses (OAT1 [1]; estimated from two doses): < 500 µM; Uptake activity remaining, OAT3 (OAT3; 50 μM): 27.6%; potency estimated from few doses (OAT3; estimated from two doses): < 50 µM; potency estimated from few doses (OCT1 [2]; [5]): < 500 µM; potency estimated from few doses (OCT1 [2]; estimated from two doses): < 500 µM; potency estimated from few doses (MATE2K; [5]): > 500 µM; potency estimated from few doses (MATE2K; estimated from two doses): > 500 µM; Effect on cell viability (human hepatocytes; Donor 1, 500 μM): affected cell viability
